Source: patent publication US11464738B2, “Ionic liquid-based nanoemulsion formulation for the efficient delivery of hydrophilic and hydrophobic therapeutic agents” (Wisconsin Alumni Research Foundation, priority 2018, dated 2022)
Entries after “also recorded” stand apart in the source; their conditions may differ.

How the values were obtained:
[1] = literature value; cited from earlier work
zebrafish (Danio rerio) = test: Embryo-larval zebrafish developmental toxicity assay; assay type: in vivo; conditions: for in vivo toxicity in zebrafish (in words): developmental toxicity assay
Experimental: In Vivo Developmental Toxicity Study. An embryo-larval zebrafish (Danio rerio) model was used to evaluate the toxicity of the novel dicationic cholinium-based ionic liquid. The following protocol was taken from previously published protocol, analyzing the toxicity of a novel triphilic polymers for use as a component in a nanoemulsion.^1 Zebrafish of the AB strain were obtained from Dr. Michael Taylor at the University of Wisconsin-Madison School of Pharmacy, where the fish were cultured until sexual maturation. Zebrafish were maintained in a light/dark cycle of 14:10 h at 28.5° C. in egg water (0.03% Instant Ocean, Blacksburg, Va., USA). The adult fish were fed Anemia nauplii twice daily. Embryos were obtained from adult fish with a ratio of 1:2 for female to male. Six breeding groups were placed in separate spawning aquariums, equipped with a mesh bottom to prevent the eggs from being cannibalized. Crossing was induced in the morning. After one hour, eggs free of macroscopically discernible symptoms of infection and disease were collected, rinsed with egg water, and transferred into Petri dishes until chemical exposure. The embryo-larval toxicity assay was subsequently carried out. 8 fertilized eggs at 2 hours post fertilization (hpf) stage were added to a 24-well plate. Each well was filled with eggs and contained 600 μL of egg water. Six concentrations plus two controls (negative and positive) were plated. For analysis of [DC-7][2Br], sodium bis(trifluoromethylsulfonyl)imide, and [DC-7][2NTf2] containing nanoemulsion the concentrations analyzed were 1 mM, 333 μM, 111 μM, 37 μM, 12.3 μM, and 4.1 μM. 1.5 mL of [DC-7][2NTf2] was added to a 15 mL conical centrifuge tube followed by 1.5 mL of egg water. The sample was allowed to sit for 6 days prior to use. Each day, the sample was sonicated at 40° C. for 6 hours and then allowed to remain at room temperature for 18 hours. After 6 days, the sample was centrifuged at 2000 rpm for 5 minutes to ensure complete sedimentation of the ionic liquid. 1.2 mL of egg water was removed and served as the stock solution. This served as the highest concentration sample. Integration of the internal standard and [DC-7][2NTf2] in the QNMR sample allowed for quantitation of the concentration of [DC-7][2NTf2] present in the stock solution used for the zebrafish viability assay. The concentrations analyzed for [DC-7][2NTf2] sample were 7.11 mM, 3.56 mM, 1.78 mM, 889 μM, 444 μM, and 222 μM.
The plates were covered and incubated at 28.5° C. in a light/dark cycle of 14:10 throughout the 96 hpf exposure period. The observations of zebrafish development were made directly in the well using a stereomicroscope (Nikon SMZ18) every 24 hours. The end points that were selected to monitor the effects of [DC-7][2Br], sodium bis(trifluoromethylsulfonyl)imide, [DC-7][2NTf2] saturated water solution and nanoemulsion included mortality, spontaneous movement, hatching success, pericardial edema, and curved body axis. Embryos and larvae were considered dead when no heartbeat was observed. The number of hatched embryos and a cumulative mortality tally were recorded every 24 h after 2 hpf. At 96 hpf, following the final observations, representative larvae for [DC-7][2Br] and [DC-7][2NTf2] saturated egg water were anesthetized with 0.4% tricaine mesylate solution and mounted on Petri dishes using low melting point agarose. These larvae were then photographed using a high-definition color microscope camera (Nikon DSFi2). Finally, all larvae used for the analysis were euthanized following.

[2] = UV/vis spectroscopy of the aggregation state of AmB; assay type: physicochemical; conditions: for aggregation state of AmB in the medium (in words): AmB solubilized in the ionic liquid or ionic liquid mixture named
Experimental: Measuring absorbance of Amphotericin B (AmB) at distinct wavelengths using UV/vis spectroscopy provides insight into its degree of self-aggregation. Absorption spectra were obtained on a Varian Cary 100Bio UV-vis spectrometer (Varian, Palto Alto, Calif.) at 25° C. using a quartz coverslip with a 0.1 mm pathlength (Starna Cells, Inc., Atascadero, Calif.) or a 1 mm pathlength quartz cuvette (Starna Cells, Inc., Atascadero, Calif.). Absorbance was measured from 300 nm to 500 nm. Samples were prepared by direct addition of AmB powder to neat ionic liquids. Ionic liquids solid at room temperature were first melted using a water bath at 60° C. prior to addition of AmB powder. After addition of solid drug, (1) 100 μL of methanol was then added to the IL mixture and the mixture was stirred at room temperature for 1 hour. (2) The drug/IL mixture was then placed under rotary evaporation in a water bath with at a temperature of 60° C. for 1 hour. (3) The drug/IL mixture was then placed under high vacuum for 1 hour. (4) The drug/IL mixture was then allowed to stir for 1 hour. This process (steps 1-4) was repeated until all drug visibly was solubilized. The drug/IL mixture was then placed under rotary evaporation at 60° C. for an additional hour and then under high vacuum for 24 hours prior to use to ensure removal of all methanol. Samples were shielded from light prior to analysis. Neat ionic liquids served as the baseline for AmB samples solubilized in ionic liquid. Dilution samples were performed using 1×PBS for dilution. Analysis of AmB nanoemulsion required a nanoemulsion without drug as the baseline to correct for inherent scattering of the prepared nanoemulsion.

[3] = Quantitative 19F NMR (QNMR) water-solubility of hydrophobic ionic liquids; assay type: physicochemical; conditions: saturated D2O; for solubility at 6 days: 25 °C, water, thermodynamic from solid, read-out: Ionic Liquid Concentration in D2O (water-solubility)
Experimental: Example 12A: Quantitative ^19F NMR spectroscopy (QNMR) for determination of concentration of hydrophobic ionic liquids in a water-solution for comparison of water-solubility of hydrophobic ionic liquids.
^19F NMR spectra was measured using a Varian UI 500 MHz spectrometer equipped with a Nalorac Quad Nucleus DD probe (qn6121, 5 mm). The internal temperature of the NMR spectrometer was maintained at 25° C. Sodium trifluoroacetate was used as an internal standard was employed in order to determine the concentration of [DC-7][2NTf2]. The internal standard was prepared in D2O and the stock solution was allowed to sonicate at 30° C. for 4 hours prior to use in order to ensure complete dissolution of sodium trifluoroacetate. Prior to quantitative study, the T1 value of both [DC-7][2NTf2] and sodium trifluoroacetate were determined using an inversion recover experiment acquired with 12 independent quadratically spaced variable (tau) values (values from 0.06944-10). The T1 value was calculated in order to ensure that both signals fully relaxed between pulses. The following parameters were employed for acquisition of T1 spectra: 500 MHz; spectra width, 107962.2 Hz; acquisition time, 1.004 s; number of points, 216688; relaxation delay, 18.996 s; number of transients, 1; 90° pulse width, 17.1 μs. X-Win32 software was used to calculate the T1 value and processing included a line broadening of 1 Hz. The T1 value of the sodium trifluoroacetate and [DC-7][2NTf2] was determined to be 2.76±0.172 seconds and 2.69±0.0885 seconds, respectively. After determination of T1, the QNMR study was completed on an optimized spectrum. […] The acquired spectrum has a signal to noise ratio of 4700, which exceeded the desired 3000 needed for quantitation. […] 0.5 mL of D2O was removed and then subsequently analyzed. Integration of the internal standard and [DC-7][2NTf2] allowed for quantitation of the concentration of [DC-7][2NTf2] present in the stock solution used for the zebrafish viability assay.

[4] = Viscosity (Brookfield viscometer); assay type: physicochemical; conditions: 30.2 ° C.
Experimental: A Brookfield viscometer (Model RVDV-1) was used to analyze the ionic liquids at 30° C. The spindle used on the instrument was CPA-41Z. After addition of 2 mL of sample to the instrument cup, the cup was warmed until all IL samples were completely transparent before beginning the measurement. The RPM was adjusted per sample in order to ensure the percent torque applied per sample was in a consistent range.

SMILES: C[C@@H]1[C@H](O)[C@@H](C)/C=C/C=C/C=C/C=C/C=C/C=C/C=C/[C@H](O[C@@H]2O[C@H](C)[C@@H](O)[C@H](N)[C@@H]2O)C[C@@H]2O[C@](O)(C[C@@H](O)C[C@@H](O)[C@H](O)CC[C@@H](O)C[C@@H](O)CC(=O)O[C@H]1C)C[C@H](O)[C@H]2C(=O)O [AmB, Amphotericin B]
- water solubility [1]: < 1.0 µg/mL

SMILES: O=C(O)C(F)(F)C(F)(F)C(F)(F)C(F)(F)C(F)(F)C(F)(F)C(F)(F)F [PFOA, perfluorooctanoic acid, reference compound]
- zebrafish malformations, microscope images (in words) (zebrafish (Danio rerio); 96 hours post-fertilization, concentration not stated (FIG. 64)): spinal curvature

SMILES: CCCCCC(=O)[O-].C[N+](C)(C)CCO [[Chol][Hex], cholinium hexanoate]
- aggregation state of AmB in the medium (in words) [2]: solely the monomeric form
- aggregation state of AmB upon dilution (in words) ([2]; dilution with phosphate-buffered saline / saline): shifts from primarily the monomeric to the aggregated form; also recorded: concentration dependent aggregation; also recorded: shifted from monomeric to aggregated

SMILES: C[N+](C)(CCO)CCCCCCC[N+](C)(C)CCO [[DC-7][2NTf2]]
- aggregation state of AmB in the medium (in words) [2]: mixture of the aggregated form and monomeric form; also recorded: mixture of monomeric and aggregated AmB
- zebrafish malformations (in words) (zebrafish (Danio rerio); 889 μM, 96 hours post fertilization): no malformations
- zebrafish survival rate / viability (zebrafish (Danio rerio); 889 μM, dilution of saturated water solution, 96 hours post fertilization): 100%
- in vivo toxicity in zebrafish (in words) (zebrafish (Danio rerio); 96 hours post fertilization): does not exhibit toxicity; also recorded: minimal toxicity
- in vivo toxicity in zebrafish (in words) (zebrafish (Danio rerio); 96 hours post fertilization, listed as [CDIL-7][NTf2]): extremely low
- solubility at 6 days [3]: 10.7 mM
- Ionic Liquid Concentration in D2O (water-solubility) ([3]; 25° C.): 6 mM

SMILES: C[N+](C)(CCO)CCOCCOCC[N+](C)(C)CCO [[DC-ether][2NTf2]]
- Viscosity [4]: 891.5 cP
- solubility at 6 days [3]: 13 mM

SMILES: O=S(=O)([N-]S(=O)(=O)C(F)(F)F)C(F)(F)F.[Na+] [sodium bis(trifluoromethylsulfonyl)imide, reference compound]
- zebrafish survival rate (zebrafish (Danio rerio); 111 μM, 96 hours post fertilization): 87%
- in vivo toxicity in zebrafish (in words) (zebrafish (Danio rerio); 96 hours post fertilization): minimal toxicity
